According to BindingDB's records for PubMed 11454901 (Shionogi, 2001):

Target: T1, Prostaglandin-H2 D-isomerase (Sus scrofa, UniProt Q29095)
T1 sequence (Q29095 whole entry): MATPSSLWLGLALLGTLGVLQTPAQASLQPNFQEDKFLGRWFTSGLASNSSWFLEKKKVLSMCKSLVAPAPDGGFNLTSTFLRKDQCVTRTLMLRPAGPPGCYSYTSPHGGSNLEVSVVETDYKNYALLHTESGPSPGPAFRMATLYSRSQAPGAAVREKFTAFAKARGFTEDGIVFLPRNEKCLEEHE

Ki	SMILES
193 nM	CC1(C)[C@H]2C[C@H](C/C=C\CCCC(=O)O)[C@@H](NC(=O)c3csc4ccc(O)cc34)[C@@H]1C2
0.49 nM	O=C(O)CCC/C=C\C[C@@H]1C(NS(=O)(=O)c2ccccc2)C2CC[C@@H]1C2 (single isomer, unassigned; (+)) [S 145]
